“Also recorded” adds a separate entry of the source. Counter-ions that a name gives are not always drawn.
Tests used:
[1] = tested on: testosterone (TE) and phenylephrine (PE) induced benign prostate hyperplasia in rats; assay: Testosterone (TE) and phenylephrine (PE) induced benign prostate hyperplasia in rats, intra-prostate injection (Example 1); type: in vivo, Male Wistar rats; settings: for glandular hyperplasia as compared to the untreated TE/PE induced prostates: TE/PE induced rats, intra-prostate injection, histology
Experimental: BPH is a true hyperplastic process. Histologic studies have documented an increase in cell number. A study was conducted, therefore, to determine the effects of test compounds and vehicle on testosterone (TE) and phenylephrine (PE) induced benign prostate hyperplasia in rats. Male Wistar rats were induced with testosterone (2 mg/kg) plus phenylephrine (5 mg/kg) administered daily by subcutaneous injection on days 5 through 32. Vehicle or test compounds (all at 1% w/w), nintedanib, sunitinib, lenvatinib, and 0.5% doxazosin mesylate, were administered by intra-prostate injection (0.4 ml) in dorsolateral and ventral lobes on days 1 and 18. Animals were euthanized on day 32. Body weights were determined and prostate glands were harvested. The experimental design is outlined in Table 1.
At necropsy, the ventral and dorsolateral lobes of the prostate were separated and then cut into halves. The left halves were fixed in 10% neutral buffered formalin, sectioned, and stained with Hematoxylin and Eosin (H&E). Histological changes in these sections were scored. Epithelial hyperplasia was recognized as an increase in epithelial cells within normal-appearing gland profiles, primarily reflected by stratification of epithelial cells and increased presence of epithelial tufting and papillary projections. A severity grade of 0 (not present) through 5 (severe) was assigned to each sample.

[2] = tested on: suture induced fibrosis model in rabbits; assay: Suture induced fibrosis model in rabbits (cornea), topical administration (Example 4); type: in vivo; settings: 0.3% w/w topical, three times daily for 10 days, Day 11; for fibroplasia and/or collagen density (histological staining, Masson's trichrome): FIG. 8
Experimental: A study was conducted to determine the potential beneficial effects of topical administration of test compounds and vehicle in a suture induced fibrosis model in rabbits. Sutures were placed intrastromally, under a microscope, in the cornea of rabbits. In each eye, one 9-0 silk suture was placed, in a vertical position, temporal to the center of the cornea and a second suture was placed nasal to the corneal center. Each suture had two stromal incursions approximately 2 mm from the limbus. Test compounds having a certain spectrum of multikinase inhibition activities, or vehicle, were topically instilled (35 μL/eye) in the eyes three times daily for 10 days following surgery. The treatment groups include vehicle, nintedanib (0.3%, w/w), sorafenib (0.3%, w/w) and lenvatinib (0.3%, w/w). Six left eyes were used per treatment group.
During the in-life phase, gross ocular observations of very slight to moderate conjunctival congestion and swelling were similar among groups, including the vehicle control. The animals were sacrificed on Day 11 and eyes enucleated and dissected for histopathological evaluation.

[3] = tested on: laser induced choroidal neovascularization; assay: Laser induced choroidal neovascularization in rat eyes (Example 5); type: in vivo; settings: Day 22, FIG. 9; for lesion sizes relative to vehicle (fluorescein angiography): topical eyedrop 1%, three times a day Days 2-21
Description: Increased expression of angiogenic factors, such as VEGF and bFGF, along with increased microvessel density, have been reported in benign prostatic hyperplasia, high grade prostate intraepithelial neoplasia and prostate cancer. […] In this example, the effect of local administration of multikinase inhibitors in a rat model of neovascularization was examined. New vessel growth is regulated by growth factor receptor signaling pathways, the functions of which broadly overlap among organs and tissues. In this study, effects of local administration of the multikinase inhibitors nintedanib and lenvatinib were examined by intravitreal injection or topical application to rat eyes following laser induced choroidal neovascularization. A 22-day study was conducted to determine the effects of test agents, positive control, or vehicle on the development of new vessels. On Day 1, laser treatments were performed on all animals using a 520 nm thermal laser to generate a total of three lesions per eye. On Days 2-21, bilateral topical administration of vehicle, 1% nintedanib, or 1% lenvatinib was performed three times a day. On Day 3, bilateral intravitreal injection of vehicle, 5 μg/eye of rat anti-VEGF antibody, 50 μg/eye of nintedanib, or 50 μg/eye of lenvatinib was performed in a second group of animals. On Day 22, fluorescein angiography was performed on all animals and lesion size/area was determined using image analysis software (ImageJ).

[4] = tested on: testosterone and/or phenylephrine induced BPH in rats; assay: Post-induction study in testosterone and/or phenylephrine induced BPH in rats, intra-prostate injection (Example 2); type: in vivo, Male Wistar rats; settings: for mean prostate weight/100 g body weight compared to vehicle: TE+PE induced days 1-28; for epithelial hyperplasia score (0 not present through 5 severe), representative image: dorsolateral prostate, FIG. 6
Experimental: Morphologically, BPH is characterized by the formation of a new architecture through the proliferation of the epithelium in pre-existing ducts. Given that stromal cells serve important paracrine regulatory functions in epithelial cell homeostasis, late stage changes in stromal-epithelial interactions could provide insight into BPH progression. A second study was conducted to determine the therapeutic effects of test compounds and vehicle, post-induction in a protocol using testosterone and/or phenylephrine induced BPH in rats.
Male Wistar rats were induced with testosterone (2 mg/kg) plus phenylephrine (5 mg/kg) administered daily by subcutaneous injection on days 1 through 28. Vehicle or test compounds sorafenib (1% w/w), pirfenidone (2.5% w/w), and riociguat (1% w/w) were administered by intra-prostate injection (0.2 ml) in the dorsolateral lobe on days 15 and 29. Animals were euthanized on day 42. Body weights were determined. Prostate glands were harvested and weighed. The experimental design is outlined in Table 2.
At necropsy, the dorsolateral and ventral lobes of the prostate were separated and cut into halves. The left halves were fixed in 10% neutral buffered formalin, sectioned, and stained with Hematoxylin and Eosin (H&E). Epithelial hyperplasia was recognized as an increase in epithelial cells within normal appearing gland profiles, as reflected in the stratification of epithelial cells and increased presence of epithelial tufting and papillary projections. Stromal changes were examined microscopically. These changes included inflammation and tissue fibroplasia. Each section was given a severity score ranging from 0 (not present) through 5 (severe).

[5] = dorsolateral prostate, TE and PE induced, intra-prostate injection days 1 and 18, 1% w/w (doxazosin 0.5%), day 32, H&E, FIG. 1
[6] = ventral prostate, TE and PE induced, intra-prostate injection days 1 and 18, 1% w/w (doxazosin 0.5%), day 32, H&E, FIG. 2
[7] = intravitreal injection 50 μg/eye on Day 3
[8] = intra-prostate injection days 15 and 29, day 42, FIG. 5
[9] = TE+PE induced, intra-prostate injection days 15 and 29, day 42

Row | SMILES | glandular hyperplasia as compared to the untreated TE/PE induced prostates [1] | epithelial hyperplasia score (severity grade 0 not present through 5 severe), representative image [1, 5] | epithelial hyperplasia score (severity grade 0 not present through 5 severe), representative image [1, 6] | alpha SMA staining by immunohistochemical analysis relative to vehicle [2] | fibroplasia and/or collagen density (histological staining, Masson's trichrome) [2] | also measured
1 | COC(=O)c1ccc2c(c1)NC(=O)/C2=C(\Nc1ccc(N(C)C(=O)CN2CCN(C)CC2)cc1)c1ccccc1 [nintedanib] | demonstrated reduction of glandular hyperplasia | 3 | 3 | significantly reduced alpha SMA staining | significantly reduced fibroplasia and/or collagen density | lesion sizes relative to vehicle-treated eyes (fluorescein angiography) [3, 7]: significantly reduced lesion sizes; lesion sizes relative to vehicle (fluorescein angiography) [3]: reduced lesion sizes
2 | CNC(=O)c1cc(Oc2ccc(NC(=O)Nc3ccc(Cl)c(C(F)(F)F)c3)cc2)ccn1 [sorafenib] | – | – | – | no effect on alpha SMA | little or no effect | mean prostate weight/100 g body weight compared to vehicle [4, 8]: did not show a reduction in mean prostate weight; inhibition of benign prostate hyperplasia / therapeutic effect in the prostate ([4]; TE+PE induced rats, 1% w/w intra-prostate): not an effective inhibitor; also recorded: did not show any therapeutic effect; epithelial hyperplasia score (0 not present through 5 severe), representative image [4, 9]: 2
3 | COc1cc2nc(N3CCN(C(=O)C4COc5ccccc5O4)CC3)nc(N)c2cc1OC (stereo not drawn) [doxazosin, doxazosin mesylate] | demonstrated reduction of glandular hyperplasia | 3 | 3 | – | – | –
4 | CCN(CC)CCNC(=O)c1c(C)[nH]c(/C=C2\C(=O)Nc3ccc(F)cc32)c1C [sunitinib] | – | 3 | – | – | – | epithelial hyperplasia score (severity grade 0 not present through 5 severe), representative image ([1]; 768 h): 3
5 | COc1cc2nccc(Oc3ccc(NC(=O)NC4CC4)c(Cl)c3)c2cc1C(N)=O [lenvatinib] | demonstrated reduction of glandular hyperplasia | 2 | 3 | significantly reduced alpha SMA staining | significantly reduced fibroplasia and/or collagen density | lesion sizes relative to vehicle-treated eyes (fluorescein angiography) [3, 7]: significantly reduced lesion sizes; lesion sizes relative to positive control, rat anti-VEGF (fluorescein angiography) ([3]; intravitreal injection 50 μg/eye on Day 3, anti-VEGF 5 μg/eye): significantly reduced lesion sizes; lesion sizes relative to vehicle (fluorescein angiography) [3]: reduced lesion sizes
6 | COC(=O)N(C)c1c(N)nc(-c2nn(Cc3ccccc3F)c3ncccc23)nc1N [riociguat] | – | – | – | – | – | effect on prostate volume and histological changes in epithelial hyperplasia ([4]; TE induced rats, 1% w/w intra-prostate): showed an effect on prostate volume and histological changes in epithelial hyperplasia; mean prostate weight/100 g body weight compared to vehicle control ([4]; TE induction days 1-28, intra-prostate injection days 15 and 29, day 42, FIG. 5): reduced the mean prostate weight; epithelial hyperplasia score (0 not present through 5 severe), representative image ([4]; TE induced, intra-prostate injection days 15 and 29, day 42): 1
7 | Cc1ccc(=O)n(-c2ccccc2)c1 [pirfenidone] | – | – | – | – | – | mean prostate weight/100 g body weight compared to vehicle [4, 8]: did not show a reduction in mean prostate weight; epithelial hyperplasia score (0 not present through 5 severe), representative image [4, 9]: 1
